We go through six molecules from patent publication US20250388575A1, “HETEROBIFUNCTIONAL COMPOUNDS AND METHODS OF TREATING DISEASE” (Halda Therapeutics OpCo, Inc., priority 2022, published 2025).

Like-named read-outs stand apart in the source and are kept apart here.

Assay [1] concerns T47D cells. Description: Cellular growth inhibition assay for T47D cells, CellTiter-Glo. It is filed as cell-based, human. Conditions: 72 hours treatment, CellTiter-Glo 2.0. In outline:
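Cells are plated at 3000/well and allowed 24 h before treatment. Test compound in medium containing 0.5% DMSO is then added, with DMSO-only wells as negative control, and plates are incubated 72 h at 37 °C. ATP luminescence (CellTiter-Glo 2.0) is then fitted to four parameters to derive GI50.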
A general note: In ATP-based viability assays light output follows the ATP content of the culture.

The test system of assay [2] is T-Rex 293 cell line SC3 cells lacking increased expression of androgen receptor protein. Description: Cellular growth inhibition, T-Rex 293 SC3 cells lacking increased androgen receptor expression (no doxycycline), CellTiter-Glo. As to conditions: T-Rex 293 SC3 cells lacking increased androgen receptor expression (not exposed to doxycycline), 72 hours, CellTiter-Glo; read-out: GI50. The format is cell-based. In short, it runs like this: (§1)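 SC3, a T-Rex 293 clone with doxycycline-inducible wild-type androgen receptor, was seeded in phenol red-free DMEM with 10% charcoal-dextran FBS, with or without 10 ng/mL doxycycline. Compound added at 24 h (0.5% DMSO) for 72 h at 37° C. CellTiter-Glo 2.0 luminescence; GI50 from four-parameter fit.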

Assay [3] deals with VCaP cells. Description: Cellular growth inhibition assay for VCaP cells, CellTiter-Glo. The format is cell-based, human. As to conditions: VCaP cells, 72 hours, CellTiter-Glo, read-out: GI50. In outline:
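GI50 values come from four-parameter curve fits of luminescence data normalized to a zero baseline. Compound, in medium with 0.5% DMSO, was added one day after plating and left for 72 h before CellTiter-Glo 2.0 addition.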

Assay [4] concerns T-Rex 293 cell line SC3 cells having increased expression of androgen receptor protein. Description: Cellular growth inhibition, T-Rex 293 SC3 cells with increased androgen receptor expression (doxycycline), CellTiter-Glo. It is filed as cell-based. As to conditions: T-Rex 293 SC3 cells with increased androgen receptor expression (exposed to 10 ng/mL doxycycline), 72 hours, CellTiter-Glo; read-out: GI50. In outline: as §1

Assay [5] has as its target progesterone receptor ligand binding domain (LBD) (Homo sapiens (Human), UniProt P06401). The assay can be described thus: FP assay for binding affinity to progesterone receptor (PolarScreen Progesterone Receptor Competitor Assay). Conditions: GST-tagged PR LBD, Fluormone tracer, fluorescence polarization, 2 hours at room temperature. The procedure:
Compounds were tested using the PolarScreen™ Progesterone Receptor Competitor Assay Kit (Life Technologies Cat #A15905 or a15906), as per the manufacturer's instructions. Briefly, GST-tagged PR LBD, Fluormone tracer, and compound were mixed and incubated for 2 hours at room temperature in the dark. Following incubation, the plates were spun at 3000×g for 30 seconds, then sealed with an optical adhesive cover, and fluorescence polarization was measured using appropriate excitation and emission filters with an EnVision Plate Reader (Perkin Elmer). Compound concentration vs. mP value were plotted in Prism (GraphPad). A four-parameter non-linear regression curve fit was applied to dose-response data to determine the half-maximal inhibitory concentration (IC50) for each test compound.
For orientation: Fluorescence polarisation rises when a labelled molecule tumbles more slowly, as on binding a larger partner.

In assay [6] the test system is T-Rex 293 cell line SC cells lacking increased expression of progesterone receptor isoform B protein. The assay can be described thus: Cellular growth inhibition, T-Rex 293 SC cells lacking increased progesterone receptor isoform B expression (no doxycycline), CellTiter-Glo. As to conditions: T-Rex 293 SC cells not exposed to doxycycline, 72 hours. It is filed as cell-based. The procedure:
(§2) The following types of cells were prepared for this experiment: (i) a T-Rex 293 cell line having increased expression of progesterone receptor isoform B protein due to exposure to doxycycline and (ii) a T-Rex 293 cell line lacking increased expression of progesterone receptor isoform B protein. Ability of the test compounds to inhibit proliferation of the foregoing cell types was evaluated according to the procedures set forth below.
(§3) The doxycycline-inducible progesterone receptor isoform B protein expressing cell line was established using the following protocol: T-Rex 293 cells were purchased from Invitrogen (Cat #R71007) and transfected using Lipofectamine 2000 with the wild-type progesterone receptor B protein sequence cloned into the pcDNA4/TO vector. Transfected cells were selected using 400 μg/mL Zeocin (Invitrogen Cat #R25001). Following selection, single clones were raised and maintained in Dulbecco's Modified Eagle Medium (DMEM) supplemented with 10% w/w Tetracycline-free fetal bovine serum (FBS) and 250 μg/mL Zeocin. Clones were analyzed for expression of progesterone receptor isoform B protein in the presence and absence of 10 ng/ml doxycycline (Sigma Cat #D9891), and a single doxycycline-inducible clone (hereinafter “SC”) was selected for use in downstream assays.
(§4) The SC cells were seeded on poly-D-lysine coated, black clear-bottom 384-well plates at 2500/well, in 25 μL Phenol Red Free Dulbecco's Modified Eagle Medium (DMEM) supplemented with 10% w/w charcoal-dextran treated fetal bovine serum (FBS) and 1% w/w pen-strep, with or without 10 ng/mL doxycycline. Pen-Strep is a commercially available mixture of penicillin G and streptomycin, which is used in mammalian cell culture media to prevent bacterial contamination. Phenol Red Free Dulbecco's Modified Eagle Medium (DMEM) supplemented with 10% w/w charcoal-dextran treated fetal bovine serum (FBS) and 1% w/w pen-strep, with or without 10 ng/mL doxycycline is herein referred to as Treatment Medium. Following seeding of cells in the plates, the plates were spun at 300×g for 30 seconds, then equilibrated to room temperature for 30 minutes, and then deposited in a humidified tissue culture incubator maintained at 37° C. with 5% CO2.
(§5) At 24 hours after seeding of the cells, dilutions of test compound were prepared in DMSO and dissolved in Treatment Medium, to achieve a final DMSO concentration of 0.5% w/w, thereby providing the Test Compound Solution. A 25 μL aliquot of the Test Compound Solution was added to cells in the well plates. An equal volume of a solution containing DMSO and Treatment Medium was used as a negative control. Following treatment of cells with Test Compound Solution or said equal volume of a solution containing DMSO and Treatment Medium, the plates were spun at 300×g for 30 seconds, and then left in an incubator for 72 hours.
(§6) At the end of the treatment duration, cell viability was quantified with CellTiter-Glo 2.0 reagent (Promega Cat #G9243). For this purpose, plates were equilibrated to room temperature for 30 minutes, and then 25 μL of CellTiter-Glo 2.0 reagent was added to cells in the plate wells. Plates were then agitated on a shaker for two minutes at 500 rpm and subsequently incubated at room temperature for 10 minutes. Following incubation, the plates were spun at 3000×g for 30 seconds, then sealed with an optical adhesive cover, and luminescence readings were measured with an EnVision Plate Reader (Perkin Elmer).
(§7) Data was normalized using zero luminescence for baseline. A four-parameter non-linear regression curve fit was applied to dose-response data in GraphPad Prism data analysis software to determine the half-maximal growth inhibitory concentration (GI50) for each test compound.

Assay [7] has as its system T-Rex 293 cell line SC cells having increased expression of progesterone receptor isoform B protein. Description: Cellular growth inhibition, T-Rex 293 SC cells with increased progesterone receptor isoform B expression (doxycycline), CellTiter-Glo. It is filed as cell-based. As to conditions: progesterone receptor isoform B induced with 10 ng/mL doxycycline, 72 hours. The procedure:
as §2, §3, §4, §5, §6, §7

Sequence of progesterone receptor ligand binding domain (LBD) (P06401 679-913): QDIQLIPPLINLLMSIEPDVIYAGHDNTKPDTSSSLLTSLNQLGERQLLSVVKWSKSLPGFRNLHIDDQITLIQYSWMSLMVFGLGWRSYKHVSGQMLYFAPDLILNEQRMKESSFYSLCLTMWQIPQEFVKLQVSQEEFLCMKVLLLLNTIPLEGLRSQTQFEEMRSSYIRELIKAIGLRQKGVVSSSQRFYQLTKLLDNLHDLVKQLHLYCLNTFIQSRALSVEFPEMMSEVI

As for `Cn1cc(-c2cc(S(=O)(=O)CCCCCN3CCN(c4ccc(C(=O)N[C@H]5CC[C@H](Oc6ccc(C#N)c(Cl)c6)CC5)nn4)CC3)ccc2Oc2ccc(F)cc2F)c2cc[nH]c2c1=O` [I-94], the GI50 – broadly, the concentration at which growth is held to half of that of the control – in assay [1] is 500 to 1500 nM; in assay [2], greater than 3000 nM; in assay [3], less than 500 nM; in assay [4] it was less than 500 nM. Further, in assay [5], the concentration for half-maximal inhibition (IC50) (as a rule, the concentration that inhibits the measured activity by half) fell in the range of 50 to 500 nM.
Regarding `Cn1cc(-c2cc(C(C)(C)O)ccc2Oc2ccc(CCOC3CCN(c4ccc(C(=O)N[C@H]5CC[C@H](Oc6ccc(C#N)c(Cl)c6)CC5)nn4)CC3)cc2F)c2cc[nH]c2c1=O` [I-106], the GI50 in assay [1] (Homo sapiens) was less than 500 nM; in assay [2], less than 500 nM; in assay [3] (Homo sapiens), 500 to 1500 nM; in assay [4], less than 500 nM. In assay [5], the IC50 was in the range of 50 to 500 nM.
As for `Cn1cc(-c2cc(C(C)(C)O)ccc2Oc2cc(F)c(CCOC3CCN(c4ccc(C(=O)N[C@H]5CC[C@H](Oc6ccc(C#N)c(Cl)c6)CC5)nn4)CC3)cc2F)c2cc[nH]c2c1=O` [I-107], the GI50 in assay [1] (Homo sapiens), in assay [2], in assay [3] (Homo sapiens) and in assay [4] was less than 500 nM throughout. The same molecule returned an IC50 in assay [5] of 50 to 500 nM.
Take `CC(C)N(C1CCN(c2ccc(C(=O)N[C@H]3CC[C@H](Oc4ccc(C#N)c(Cl)c4)CC3)nn2)CC1)C1CN(c2cccc(Oc3ccc(C(C)(C)O)cc3-c3cn(C)c(=O)c4[nH]ccc34)c2F)C1` [I-141]: the GI50 is 500 to 1500 nM in assay [1], 500 to 1500 nM in assay [2], greater than 3000 nM in assay [3] and less than 500 nM in assay [4]. For the same molecule, the IC50 in assay [5] lay within 50 to 500 nM.
`Cn1cc(-c2cc(C(C)(C)O)ccc2Oc2ccc(N3CC(C4CCN(c5ccc(C(=O)N[C@H]6CC[C@H](Oc7ccc(C#N)c(Cl)c7)CC6)nn5)CC4)C3)cc2)c2cc[nH]c2c1=O` [I-148]: the GI50 was less than 500 nM in assay [1]; 500 to 1500 nM in assay [6]; greater than 3000 nM in assay [2]; less than 500 nM in assay [7]; less than 500 nM in assay [3]; less than 500 nM in assay [4].
For `Cn1cc(-c2cc(C(C)(C)O)ccc2Oc2ccc(OCC3CCN(c4ccc(C(=O)NC5CCC(Oc6ccc(C#N)c(Cl)c6)CC5)nn4)CC3)cc2)ccc1=O` (stereo not shown) [I-235, N-[4-(3-chloro-4-cyano-phenoxy)cyclohexyl]-6-[4-[[4-[4-(1-hydroxy-1-methyl-ethyl)-2-(1-methyl-6-oxo-3-pyridyl)phenoxy]phenoxy]methyl]-1-piperidyl]pyridazine-3-carboxamide], the GI50 in assay [1] (Homo sapiens) is 500 to 1500 nM; in assay [2], greater than 3000 nM; in assay [3] (Homo sapiens) it was less than 500 nM; in assay [4], less than 500 nM. Moreover, the IC50 in assay [5] is 50 to 500 nM.
